Experimental data as given in patent US11466024B2, “Bicylic compound acting as an inhibitor” (CHIA TAI TIANQING PHARMACEUTICAL GROUP CO., LTD., priority 2017, dated 2022).
pIC50: −log10 of the molar value.

How the values were obtained:
[1] = test system: MOG35-55-induced experimental autoimmune encephalomyelitis (EAE); assay: In vivo pharmacodynamic research on MOG35-55-induced experimental autoimmune encephalomyelitis (EAE) in mice; details: G4, 75 mg/kg p.o. b.i.d
Procedure: The day of immunization was recorded as day 0, and the subsequent days were marked sequentially. Mice were anesthetized with isoflurane, and 100 μl of the emulsion was administered via subcutaneous injection at three sites (the middle part between shoulder and back, and two sides of the tail that were close to the groin), namely, 33 μl of the emulsion for each site. 0 hour and 48 hours after the injection of the emulsion, 200 ng (i.e. 200 μl) of the PTX solution was intraperitoneal injected. Mice in the normal group were not required to be immunized.
After the immunization on day 0, the immunized mice were randomly divided into 3 groups with 10 mice in each group according to the body weights except for the mice in the normal group, the details were shown in Table 1. FTY720 served as a positive drug, and a dose of […] was an effective dose commonly used in the EAE model.
The first group was normal mice without any treatment; vehicle was administered to the second group; FTY720 was administered to the third group at a dose of 0.5 mg/kg once a day; and the compound of Example 1 was administered to the fourth group at a dose of 75 mg/kg twice a day. The administration lasted for 25 days in total. The volume of intragastric administration was 10 ml/kg.
The day when animals were immunized was day 0. Animal body weights were recorded three times a week from day 0 to day 10, and the body weights and clinical scores of the animals were closely observed and recorded daily from day 11.
The experimental data was expressed as mean±standard error of mean (Mean±SEM).
The area under the curve of clinical scores over time (i.e. “AUC of clinical scores” or “area under the curve of clinical scores”) was calculated by analyzing the curve of clinical scores for each animal in each group, and the inhibition rates of the remaining groups (G1, G3, and G4) relative to G2 (solvent control group) were calculated by the mean AUC of clinical scores among groups.

hERG potassium channel = hERG potassium channel (Homo sapiens, UniProt Q12809); assay: Inhibition test of hERG potassium channel (QPatch, CHO-hERG cells)
Procedure: CHO-hERG cells (from Shanghai Institute of Materia Medica, Chinese Academy of Sciences) were cultured in a 175 cm^2 culture flask. When the cell density reached 60% to 80%, the culture medium was removed, the cells were washed once with 7 mL of PBS, and then 3 mL of Detachin was added for cell detachment. After complete cell detachment, 7 mL of culture medium were added for neutralization, the mixture was then centrifuged, the supernatant was aspirated, and another 5 mL of culture medium was added for re-suspension, so as to ensure that the cell density was 2×10^6/mL to 5×10^6/mL.
The single-cell giga-seal and the formation of whole-cell mode were both completed automatically by a Q patch instrument. After a whole-cell recording mode was achieved, the cells were clamped at −80 mV, exposed to a front voltage of −50 mV for 50 ms prior to a depolarizing stimulus (5 s, +40 mV), and then repolarized to −50 mV for 5 s, followed by a recovery to −80 mV. This voltage stimulation was applied every 15 s and recorded for 2 minutes, and the extracellular fluid was then administered, followed by a record lasting for 5 minutes. Thereafter, the administration process was started. Starting from the lowest test concentration, the compounds were administered at each test concentration and the process lasted for 2.5 minutes. […] At least 3 cells (n≥3) were tested at each concentration.
20 mM stock solution of the compound was diluted with the extracellular fluid, and 5 μL of the 20 mM stock solution of the compound was taken, added to 2495 μL of the extracellular fluid, and diluted by 500 times to 40 μM. Thereafter, the resulting mixture was serially and successively diluted by 3 times in an extracellular fluid containing 0.2% DMSO, so as to obtain a final concentration to be tested.
The experimental data was analyzed by XLFit software.

Chain of hERG potassium channel (Q12809 whole entry): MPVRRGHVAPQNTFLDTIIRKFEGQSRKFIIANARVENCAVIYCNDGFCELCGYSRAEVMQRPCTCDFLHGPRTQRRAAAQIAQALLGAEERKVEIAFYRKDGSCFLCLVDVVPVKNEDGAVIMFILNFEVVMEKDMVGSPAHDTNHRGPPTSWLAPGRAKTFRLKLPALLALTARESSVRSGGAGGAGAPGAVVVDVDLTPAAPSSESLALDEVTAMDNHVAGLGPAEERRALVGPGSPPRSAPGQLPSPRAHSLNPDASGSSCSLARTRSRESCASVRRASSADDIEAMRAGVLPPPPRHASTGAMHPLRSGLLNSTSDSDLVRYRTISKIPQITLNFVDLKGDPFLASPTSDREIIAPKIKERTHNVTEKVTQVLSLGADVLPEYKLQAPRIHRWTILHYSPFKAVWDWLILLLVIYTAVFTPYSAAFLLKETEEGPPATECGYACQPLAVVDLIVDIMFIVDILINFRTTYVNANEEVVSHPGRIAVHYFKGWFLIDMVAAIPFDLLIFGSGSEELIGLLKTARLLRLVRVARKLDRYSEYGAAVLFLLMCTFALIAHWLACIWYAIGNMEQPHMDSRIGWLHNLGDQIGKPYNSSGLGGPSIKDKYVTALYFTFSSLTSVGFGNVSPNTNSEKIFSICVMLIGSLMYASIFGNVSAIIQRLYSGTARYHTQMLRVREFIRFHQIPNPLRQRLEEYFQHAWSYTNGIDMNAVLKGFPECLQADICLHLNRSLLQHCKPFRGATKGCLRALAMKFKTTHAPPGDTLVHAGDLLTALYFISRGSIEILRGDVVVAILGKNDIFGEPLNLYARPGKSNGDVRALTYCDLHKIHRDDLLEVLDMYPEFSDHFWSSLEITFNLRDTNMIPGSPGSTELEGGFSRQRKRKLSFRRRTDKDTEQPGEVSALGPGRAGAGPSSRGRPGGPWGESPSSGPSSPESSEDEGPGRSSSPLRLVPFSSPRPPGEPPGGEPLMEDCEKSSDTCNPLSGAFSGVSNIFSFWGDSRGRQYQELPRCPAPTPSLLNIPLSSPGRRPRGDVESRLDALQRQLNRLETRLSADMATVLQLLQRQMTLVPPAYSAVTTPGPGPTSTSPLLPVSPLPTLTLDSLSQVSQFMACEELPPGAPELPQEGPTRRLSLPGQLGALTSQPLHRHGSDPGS

`CCS(=O)(=O)c1ccc(CNC(=O)c2cc3c(s2)C(C(C)C)N(C[C@H]2CC[C@H](C(F)(F)F)CC2)C3)nc1` (single isomer, unassigned) [Example 1] was tested, and the “clinical scores of EAE mice” value ([1]; 25 days, FIG. 1) was “significantly reduced”, the “inhibition rate of AUC of clinical scores relative to solvent control group” value ([1]; 25 days, p<0.0001, FIG. 2) was 93.2% and the “morbidity of EAE” value ([1]; at day 19, stable till the end of the experiment, FIG. 3) was 20%. The “body weights compared among groups” value ([1]; from the beginning to end, FIG. 4) was “the highest”, the body weight changes ([1]; significantly different from solvent control group, FIG. 4) was “kept increasing” and the pIC50 (hERG potassium channel) was under 4.40. The inhibition at 2.5 min, 40 μM (hERG potassium channel; human) was 26.3%.
